The values that follow come from patent publication US12678453B2, “Aerosolized formulations of HIV protease inhibitors for the treatment of airway reflux” (The Medical College of Wisconsin, Inc., priority 2020, dated 2026).

The subject of series [1] is mouse model of laryngopharyngeal reflux (LPR). Nature of the series: in vivo mouse model of LPR (laryngeal wounding and pepsin instillation, H&E histology). The following applies: for laryngeal histology (H&E) / pepsin-mediated laryngeal injury: pepsin pH7 group; for laryngeal histology (H&E): solvent (saline/PBS pH7) group. From the text: An in vivo mouse model of direct application of pepsin, to mimic laryngeal exposure during LPR, and treatment with select HIV protease inhibitors by either gavage (oral systemic delivery) or aerosolized delivery (inhaled local delivery) was used. […] Each group contained 3 mice. Six-week-old female Jackson A/J mice (Jackson Laboratory, Bar Harbor, ME), weighed one day after arrival, then weekly, on Mondays thereafter.
Avertin was the preferred anesthetic for the brief application time needed as it has a rapid induction, produces a short surgical anesthesia, and has a rapid recovery. […] For this experiment, isoflurane inhalation was used. The isoflurane, self-scavenging machine, was operated at 3% isoflurane with 2.5 liters of air per minute (LPM). The induction chamber was charged for 3-5 minutes prior to the mice being anesthetized. Mice were placed in the induction chamber for 3-5 minutes prior to any wounding or administrations. Anesthesia records were kept according to IACUC policy.
Animals secured by a copper wire attached to the board from which the mice were suspended by their upper teeth. This caused the lower jaw to fall open naturally, exposing the larynx and permitting visualization with a Zeiss microscope at 6× magnification. […] Under direct visualization, the subglottis, glottis, and supraglottis regions were superficially scratched interiorly from distal to proximal as the needle was pulled out gently, making a mild abrasion. This procedure was performed twice, with one week between woundings.
To examine the effect pepsin at acid and nonacid pH, animals were treated for 2 weeks with laryngeal instillation of pepsin (20 μL at 0.3 mg/ml, pH 7.0 or pH 4.0) at 24, 48, and 72 h post wounding procedure. During weeks 3 and 4, animals were treated with laryngeal instillation for 3 days per week. Mice were sacrificed and samples collected on Friday of the fourth week.
The twelve mice in the aerosol groups were condition in the nose-only exposure chamber (Intox) on three separate days by exposure to dry air for 10 min. Beginning the Monday (day 1) of the next week, aerosols and gavages were performed on the mice Monday through Friday (5 exposures). The aerosols and gavages continued Monday-Friday for three more weeks, with the final week consisting of 4 total exposure days, Monday-Thursday, (19 total) with the mice sacrificed and tissues harvested on Friday. Each mouse received two woundings and 12 solvent or pepsin administrations. Wounding and intratracheal administrations were concurrent with the aerosol and gavage treatments. The first wounding was performed on day 2, followed by solvent or pepsin administrations on days 3, 4, and 5. The second wounding was performed on day 8, followed by solvent or pepsin administrations on days 9, 10, and 11. In weeks 3 and 4, mice received solvent or pepsin administrations on days 16, 17, and 18 and days 23, 24, and 25. Day 26 was sacrifice and tissue harvest.
A 10 mL suspension of drug in ethanol was placed in the baffle, such that the concentration would remain constant at the equilibrium solubility. Droplets of ethanol containing dissolve drug were generated by an ultrasonic atomizer (nominal frequency 1.7 MHz) entrained by air at a flow rate of 0.5 LPM with a custom-built glass baffle (University of Minnesota, Department of Chemistry Glass Shop). The aerosol cloud was then passed through a cylindrical drying column containing an annular ring of charcoal. The ethanol is removed and the emanating dry aerosol particles of pure drug were then directed into the exposure chamber.
The mass deposited on the filters in a fixed collection time was measured gravimetrically, and with the collection time, allowed calculation of the total output rate (mg/min). The aerosol concentration (mass/volume of air) was calculated by dividing the total output rate by the air flow rate (0.5 LPM).

Series [2] is described as follows: preliminary 12-day toxicity study of aerosolized fosamprenavir. Format: in vivo, mice. The conditions noted are these: 12-day exposure. The method, then:
In the following Example, the inventors used a small-scale powder disperser (SSPD) to aerosolize Fosamprenavir powder, and monitored particle size distribution by an Optical Particle Sizer (OPS). The SSPD inhales the powder through a venturi aspirator, which is then sampled through OPS at 1 L/min of flow (FIG. 11).
A preliminary 12-day toxicity study was conducted in mice. […] This was the only animal affected, across 15 treated mice, so this is suspected to be unrelated to the fosamprenavir treatment.

Series [3] deals with 14 relevant biomarkers for inflammation and toxicity. The series is described as follows: Luminex assay of bronchiolar lavage samples. The format is in vivo, mice. The conditions noted are these: control versus lowest dose. From the text:
Bronchiolar lavage samples were collected from all mice and a Luminex assay was used to measure 14 relevant biomarkers for inflammation and toxicity.

The conditions of series [4]: known clinical profile; cited from earlier work.
For series [5] the following is noted: cited from earlier work.
For the next series, the system named is pepsin. The conditions noted are these: Roberts 2003; cited from earlier work.
The conditions of series [6]: cited from earlier work. This is another data set of the same source.

Square brackets hold non-standard residues; d marks the D form. Peptide text beside a SMILES is read from it. * marks the point of attachment. Sta = CC(C)C[C@H](N)[C@@H](O)CC(=O)O; Isovaleryl = CC(C)CC(=O)*

Regarding `CC(C)CN(C[C@@H](OP(=O)(O)O)[C@H](Cc1ccccc1)NC(=O)O[C@H]1CCOC1)S(=O)(=O)c1ccc(N)cc1` [fosamprenavir, [(3 S)-oxolan-3-yl]N-[(2S,3R)-4-[(4-aminophenyl)sulfonyl-(2-methylpropyl)amino]-1-phenyl-3-phosphonooxybutan-2-yl]carbamate], in series [1] (aerosol), the “laryngeal histology (H&E) / pepsin-mediated laryngeal injury” value is reported as “normal histology” and the “laryngeal histology (H&E)” value is “normal histology”. For the same molecule, in series [1] (gavage), the “laryngeal histology (H&E) / pepsin-mediated laryngeal injury” value was “normal histology” and the “laryngeal histology (H&E)” value is “normal histology”. Besides, the “pepsin-mediated laryngeal injury (multi-layered, reactive epithelia and cell apoptosis)” value in series [1] (inhalation, 1 mg/kg/d) is reported as “prevented pepsin mediated laryngeal injury”. In addition, the “pathology in nasal cavity, larynx, esophagus, trachea, lung, liver, and kidney tissues” value in series [2] (mice) is “No pathology was observed”. In series [2] (one of 15 treated mice, suspected to be unrelated to treatment), the heart pathology entry is listed as “significant inflammation”. In series [3], the “IL-6 in bronchiolar lavage” value is reported as “showed significance”. Also, the “side effects / tolerability” value in series [4] is listed as “favorable tolerability profile”. Besides, the pharmacokinetics entry in series [5] (in mice) is listed as “excellent pharmacokinetics”. In series [5] (prodrug compared with amprenavir), the oral bioavailability result is recorded as “improved oral bioavailability”.

As for `CC(C)CC(=O)N[C@H](C(=O)N[C@H](C(=O)N[C@@H](CC(C)C)[C@@H](O)CC(=O)N[C@@H](C)C(=O)N[C@@H](CC(C)C)[C@@H](O)CC(=O)O)C(C)C)C(C)C` [pepstatin] (Isovaleryl-VV[Sta]A[Sta]-OH), the affinity for pepsin entry with pepsin is “subnanomolar”. Moreover, the water solubility result in series [6] is on record as “poor water-solubility”.
